Results taken from patent US8906943B2, “Synthetic compounds and methods to decrease nicotine self-administration” (priority 2010, dated 2014).
Where two headings read alike, the source gives them in different places. Marks after values point to notes of the source that are not given here. One block for each compound: values may come before it.

Legend:
[1] = system: nicotine self-administration in male Wistar rats; experiment: Nicotine i.v. self-administration (IVSA) in rats, FR1 schedule; type: in vivo, rat; settings: for Number of nicotine infusions, Compound (15 mg/kg): 15 mg/kg i.p. 30 minutes before i.v. self-administration of 0.03 mg/kg/infusion nicotine; for % Change (decrease in nicotine self-administration): versus vehicle; for effect on nicotine intake, ANOVA of dose response: 1-hour self-administration sessions; for ED50: Rattus norvegicus, iv, rats, read-out: apparent ED50, nicotine IVSA; for Number of nicotine infusions, Compound (25 mg/kg): 25 mg/kg i.p. 30 minutes before i.v. self-administration of 0.03 mg/kg/infusion nicotine
Protocol: Male, Wistar rats trained in a paradigm of nicotine i.v. self-administration (IVSA) generally related to a modification of a previously published protocol (Watkins et al., Pharmacol Biochem Behavior 62, 743-751 (1999)). Rats were treated with test compounds I-7. […] At 3.0 mg/kg, responding for nicotine was decreased by 62% when compared to control (vehicle-treated) conditions. […] On the basis of these initial studies, more extensive work was done and IVSA studies of compounds 8, 10 and 11 were conducted.
As with all the compounds examined in this study, there was no carry-over effect. […] The dose-effect function for treatment of 11 on nicotine self-administration is shown in [FIG. 2].

CYP2B1 = CYP2B1 (Rattus norvegicus (Rat), UniProt P00176); experiment: Inhibition of rat CYP2B1; type: biochemical; settings: pH 7.5, Inhibitor present at 100 μM, read-out: rCYP2B1 % inhibition
Sequence of CYP2B1 (P00176 whole entry): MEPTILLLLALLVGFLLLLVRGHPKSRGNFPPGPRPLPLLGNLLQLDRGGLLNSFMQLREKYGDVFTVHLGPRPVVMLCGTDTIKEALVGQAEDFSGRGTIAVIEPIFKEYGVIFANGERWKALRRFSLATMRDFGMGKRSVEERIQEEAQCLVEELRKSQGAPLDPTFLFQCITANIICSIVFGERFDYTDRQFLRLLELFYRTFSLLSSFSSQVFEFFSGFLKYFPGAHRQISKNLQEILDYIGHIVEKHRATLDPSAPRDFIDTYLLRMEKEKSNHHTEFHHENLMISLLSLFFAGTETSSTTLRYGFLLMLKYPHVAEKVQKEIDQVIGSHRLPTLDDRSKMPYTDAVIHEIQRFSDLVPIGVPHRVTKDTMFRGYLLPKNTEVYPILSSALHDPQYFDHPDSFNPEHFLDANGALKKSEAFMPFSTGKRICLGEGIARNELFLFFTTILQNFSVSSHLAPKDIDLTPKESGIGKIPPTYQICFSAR

human CYP2A6 = human CYP2A6 (Homo sapiens (Human), UniProt P11509); experiment: Inhibition of human CYP2A6-mediated coumarin 7-hydroxylation; type: biochemical; settings: for Ki: read-out: Ki human CYP 2A6
Sequence of human CYP2A6 (P11509 whole entry): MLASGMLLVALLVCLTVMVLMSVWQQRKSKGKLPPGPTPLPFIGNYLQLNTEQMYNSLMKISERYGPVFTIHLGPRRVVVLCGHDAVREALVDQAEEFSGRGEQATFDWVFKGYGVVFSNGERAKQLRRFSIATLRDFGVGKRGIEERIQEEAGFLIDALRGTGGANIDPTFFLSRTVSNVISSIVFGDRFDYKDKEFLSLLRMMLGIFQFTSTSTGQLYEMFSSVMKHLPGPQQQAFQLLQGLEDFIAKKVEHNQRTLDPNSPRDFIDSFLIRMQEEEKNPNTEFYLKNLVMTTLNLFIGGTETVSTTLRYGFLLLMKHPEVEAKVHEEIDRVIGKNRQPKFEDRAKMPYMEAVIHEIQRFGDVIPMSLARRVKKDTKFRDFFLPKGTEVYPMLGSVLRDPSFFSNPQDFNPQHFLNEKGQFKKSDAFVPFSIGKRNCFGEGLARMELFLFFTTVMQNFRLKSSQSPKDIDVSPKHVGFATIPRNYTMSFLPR
Protocol: Our first studies were with highly purified human CYP2A6 that provided a convenient and relatively high-throughput measure of CYP2A6 inhibition. Full dose-response IC50 values (nine concentrations) were determined (Table 1).

CYP2E1 = CYP2E1 (Homo sapiens (Human), UniProt P05181); experiment: CYP2E1 inhibition, vivid blue substrate O-dealkylation; type: biochemical; settings: for inhibition of human CYP 2E1 (in words): 10 μM; for inhibition at 10 µM: human, pH 7.5, probe isozyme specific vivid blue substrate (O-dealkylation), mean of triplicate, read-out: CYP2E1 Percent Inhibition
Sequence of CYP2E1 (P05181 whole entry): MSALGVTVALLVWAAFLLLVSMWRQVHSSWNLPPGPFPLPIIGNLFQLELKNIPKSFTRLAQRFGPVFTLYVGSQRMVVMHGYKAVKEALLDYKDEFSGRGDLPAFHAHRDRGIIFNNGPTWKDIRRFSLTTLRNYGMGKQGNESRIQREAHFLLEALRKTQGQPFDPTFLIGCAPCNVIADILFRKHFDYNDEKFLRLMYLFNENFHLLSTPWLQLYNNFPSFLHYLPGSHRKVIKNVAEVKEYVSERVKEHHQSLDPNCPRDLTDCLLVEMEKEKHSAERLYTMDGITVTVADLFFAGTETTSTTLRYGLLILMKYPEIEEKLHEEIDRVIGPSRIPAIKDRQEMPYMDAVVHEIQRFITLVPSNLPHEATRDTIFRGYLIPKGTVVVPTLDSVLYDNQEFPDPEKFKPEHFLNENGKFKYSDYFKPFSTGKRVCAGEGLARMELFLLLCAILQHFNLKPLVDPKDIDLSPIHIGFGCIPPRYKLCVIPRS
Protocol: (§1) To gain insight into the selectivity of the synthetic compounds for inhibition of other CYPs, we examined the major CYPs present in human liver. […] A typical incubation mixture (final volume 0.25 mL) contained 50 mM Tris or KPhos buffer (pH 7.5), 0.5 mM NADP^+, 2.0 mM G6P, 1 U of G6P dehydrogenase and 0.6 mg DETAPAC and the inhibitor was added last to minimize interaction with the protein. After mixing on ice, the reaction was initiated by the addition of substrate and incubated at 37° C. with shaking in air. Organic extracts were analyzed by fluorescence (for fluorometric substrates) or injected onto a Hitachi L-7100 system equipped with a Hitachi L-7400 UV detector. Separations were done with an Altex Ultrasphere ODS (4.6 mm×250 mm, 5 μm) column and analytes were eluted with an isocratic solvent system consisting of water/acetonitrile/methanol (30:10:60, v/v/v) at a flow rate of 1.0 mL/min. Quantification of substrate and metabolite was determined from peak areas of the chromatogram and comparison with standard curves. IC50 values were determined with GraphPad Prism and kinetic data was converted into IC50 values. Each kinetic determination was reported as the mean±SD as described below. […] To measure CYP2A6 activity, coumarin 7-hydroxylation was determined as described in Denton et al., supra. To measure CYP3A4 activity, testosterone 6-hydroxylation was determined as described in Denton et al., supra. To measure CYP2E1, CYP2B6, CYP2C9, CYP2C19 and CYP2D6 activity, isozyme specific vivid blue substrate O-dealkylation was determined via a modified PanVera Vivid Assay Protocol as described in Denton et al., supra.

CYP2C9 = CYP2C9 (Homo sapiens (Human), UniProt P11712); experiment: CYP2C9 inhibition, vivid blue substrate O-dealkylation; type: biochemical; settings: pH 7.5, probe isozyme specific vivid blue substrate (O-dealkylation), mean of triplicate, read-out: CYP2C9 Percent Inhibition
Sequence of CYP2C9 (P11712 whole entry): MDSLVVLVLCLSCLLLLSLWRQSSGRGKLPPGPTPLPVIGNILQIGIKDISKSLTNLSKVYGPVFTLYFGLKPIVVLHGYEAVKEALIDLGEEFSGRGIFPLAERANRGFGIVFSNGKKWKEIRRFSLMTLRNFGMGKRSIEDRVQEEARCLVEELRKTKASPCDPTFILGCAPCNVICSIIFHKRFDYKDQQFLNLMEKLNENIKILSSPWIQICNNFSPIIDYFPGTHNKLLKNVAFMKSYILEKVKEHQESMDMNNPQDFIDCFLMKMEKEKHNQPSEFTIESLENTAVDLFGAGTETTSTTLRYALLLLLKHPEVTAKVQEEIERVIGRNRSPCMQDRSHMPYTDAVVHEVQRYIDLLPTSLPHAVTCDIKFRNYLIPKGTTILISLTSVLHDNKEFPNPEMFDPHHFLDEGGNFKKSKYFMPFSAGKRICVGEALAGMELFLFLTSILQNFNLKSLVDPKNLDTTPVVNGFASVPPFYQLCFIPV
Protocol: as §1

food intake in rats = experiment: Order and food effects, operant food sessions; type: in vivo, rat; settings: for Food Effects: mean ± SEM
Excerpt: The conclusion is that the effect of 10 and 11 was selective and highly efficacious on a biological target and not a promiscuous non-specific behavioral effect.

CYP3A4 = CYP3A4 (Homo sapiens (Human), UniProt P08684); experiment: in vitro; settings: pH 7.5
Sequence of CYP3A4 (P08684 whole entry): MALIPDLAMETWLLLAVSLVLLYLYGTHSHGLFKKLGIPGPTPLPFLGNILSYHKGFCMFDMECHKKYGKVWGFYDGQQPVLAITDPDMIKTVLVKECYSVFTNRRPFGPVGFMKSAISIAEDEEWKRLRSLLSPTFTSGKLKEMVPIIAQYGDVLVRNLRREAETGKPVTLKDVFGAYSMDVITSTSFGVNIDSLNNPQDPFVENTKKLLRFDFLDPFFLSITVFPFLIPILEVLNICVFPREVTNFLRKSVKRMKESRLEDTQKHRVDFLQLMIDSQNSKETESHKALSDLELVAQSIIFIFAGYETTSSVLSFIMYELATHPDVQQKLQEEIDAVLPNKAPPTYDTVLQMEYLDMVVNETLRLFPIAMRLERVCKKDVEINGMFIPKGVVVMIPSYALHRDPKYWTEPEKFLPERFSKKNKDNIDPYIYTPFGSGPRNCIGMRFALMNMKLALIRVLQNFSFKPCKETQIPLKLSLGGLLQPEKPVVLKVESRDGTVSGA
Protocol: as §1, with “Separations were done with an Altex Ultrasphere ODS (4.6 mm×250 mm, 5 μm) column and analytes were eluted with an isocratic solvent system consisting of water/acetonitrile/methanol (30:10:60, v/v/v) at a flow rate of 1.0 mL/min.” left out, “values.” for “values. Each kinetic determination was reported as the mean±SD as described below.”

CYP2C19 = CYP2C19 (Homo sapiens (Human), UniProt P33261); experiment: CYP2C19 inhibition, vivid blue substrate O-dealkylation; type: biochemical; settings: pH 7.5, probe isozyme specific vivid blue substrate (O-dealkylation), mean of triplicate, read-out: CYP2C19 Percent Inhibition
Sequence of CYP2C19 (P33261 whole entry): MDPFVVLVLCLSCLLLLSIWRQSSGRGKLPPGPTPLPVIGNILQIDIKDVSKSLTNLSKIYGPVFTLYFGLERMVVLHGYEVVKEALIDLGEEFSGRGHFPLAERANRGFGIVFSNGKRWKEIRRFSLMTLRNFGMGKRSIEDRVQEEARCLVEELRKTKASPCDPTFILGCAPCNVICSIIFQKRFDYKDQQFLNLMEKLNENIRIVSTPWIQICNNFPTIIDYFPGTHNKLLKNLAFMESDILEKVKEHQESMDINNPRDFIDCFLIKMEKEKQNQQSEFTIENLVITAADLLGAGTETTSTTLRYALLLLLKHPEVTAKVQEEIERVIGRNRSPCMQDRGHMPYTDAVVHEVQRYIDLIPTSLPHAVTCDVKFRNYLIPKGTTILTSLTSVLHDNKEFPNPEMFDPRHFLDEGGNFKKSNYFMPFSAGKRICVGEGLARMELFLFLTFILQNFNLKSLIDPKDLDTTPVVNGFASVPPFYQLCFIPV
Protocol: as §1

hCYP2B6 = hCYP2B6 (Homo sapiens (Human), UniProt P20813); experiment: CYP2B6 inhibition, vivid blue substrate O-dealkylation; type: biochemical; settings: for IC50: ND = no detectable inhibition
Sequence of hCYP2B6 (P20813 whole entry): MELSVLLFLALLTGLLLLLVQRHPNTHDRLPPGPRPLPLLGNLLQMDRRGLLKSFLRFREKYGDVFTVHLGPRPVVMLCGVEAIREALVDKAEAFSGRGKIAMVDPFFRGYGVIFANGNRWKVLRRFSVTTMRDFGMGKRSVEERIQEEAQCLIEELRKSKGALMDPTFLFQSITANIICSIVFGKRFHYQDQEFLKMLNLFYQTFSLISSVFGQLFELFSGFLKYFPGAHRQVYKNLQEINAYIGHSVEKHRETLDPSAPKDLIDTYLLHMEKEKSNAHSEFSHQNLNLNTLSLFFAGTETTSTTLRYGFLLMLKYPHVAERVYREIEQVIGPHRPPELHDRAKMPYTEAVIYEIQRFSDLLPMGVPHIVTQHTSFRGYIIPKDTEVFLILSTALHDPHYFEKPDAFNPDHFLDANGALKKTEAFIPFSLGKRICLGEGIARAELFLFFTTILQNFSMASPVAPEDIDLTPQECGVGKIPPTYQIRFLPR
Protocol: as §1

CYP2D6 = CYP2D6 (Homo sapiens (Human), UniProt P10635); experiment: CYP2D6 inhibition, vivid blue substrate O-dealkylation; type: biochemical; settings: pH 7.5, probe isozyme specific vivid blue substrate (O-dealkylation), mean of triplicate, read-out: CYP2D6 Percent Inhibition
Sequence of CYP2D6 (P10635 whole entry): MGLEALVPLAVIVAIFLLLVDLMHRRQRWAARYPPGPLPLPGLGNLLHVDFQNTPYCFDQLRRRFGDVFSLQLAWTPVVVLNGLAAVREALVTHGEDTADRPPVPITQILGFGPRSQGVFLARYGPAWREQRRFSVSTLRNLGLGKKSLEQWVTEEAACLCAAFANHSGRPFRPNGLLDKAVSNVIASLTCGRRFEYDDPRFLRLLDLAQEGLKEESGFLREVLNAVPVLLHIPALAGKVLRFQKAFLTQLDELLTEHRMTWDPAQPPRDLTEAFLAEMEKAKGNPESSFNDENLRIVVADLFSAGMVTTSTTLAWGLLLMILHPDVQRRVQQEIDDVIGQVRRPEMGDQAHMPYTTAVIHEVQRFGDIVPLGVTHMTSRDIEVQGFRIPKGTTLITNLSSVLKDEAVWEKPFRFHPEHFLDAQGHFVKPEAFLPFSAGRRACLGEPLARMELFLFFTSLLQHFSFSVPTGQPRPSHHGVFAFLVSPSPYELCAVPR
Protocol: as §1

[2] = Table 1, purified human CYP2A6, nine concentrations, read-out: hCYP2A6 IC50
[3] = Table 3, read-out: CYP2A6 Inhibition IC50

Compound: CNC1(C)C2CCC(C2)C1(C)C (centres unmarked) [Mecamylamine, reference compound]
decrease in responding for nicotine versus vehicle ([1]; 3.0 mg/kg, s.c., 30 minutes before the session, FR1): 62%

Compound: c1cncc(-c2c[nH]cn2)c1 [Compound 8]
IC50 (human CYP2A6; [2]): 800000 nM
IC50 (human CYP2A6; [3]): 800 nM
effect on nicotine intake, ANOVA of dose response ([1]; i.p.): failed to reveal a significant effect

Compound: N[C@@H]1C[C@H]1c1ccccc1 (racemic) [Tranylcypromine, reference compound]
IC50 (human CYP2A6; [3]): 233 nM

Compound: c1ccc(CCn2ccnc2)cc1 [Compound 11, 1-Phenethyl-2-imidazol-1-yl]
inhibition of human CYP 2E1 (in words) (CYP2E1): some inhibition
inhibition at 10 µM (CYP2E1): 88%
inhibition at 10 µM (CYP2C9): 13%
effect on food intake (in words) (food intake in rats; 5 mg/kg, 30-min operant food sessions): significant suppression
Food Effects (food intake in rats; Dose 2.8 mg/kg): 79 ± 1.3
Food Effects (food intake in rats; Dose 5.0 mg/kg): 63 ± 5.6
IC50 (human CYP2A6; [2]): 618000 nM
IC50 (human CYP2A6; [3]): 618 nM
inhibition at 10 µM (CYP3A4): 63%
inhibition at 10 µM (CYP2C19): 21%
ED50 [1]: 3 mg/kg
effect on nicotine intake, ANOVA of dose response ([1]; i.p.): significant effect
inhibition of human CYP 2B6 (in words) (hCYP2B6): inhibited human CYP 2B6 to a certain extent
IC50 (hCYP2B6): > 20000 nM
inhibition at 10 µM (CYP2D6): 62%
inhibition at 100 µM (CYP2B1): 67.7%

Compound: NCc1ccc(-c2cccnc2)o1 [Compound 6]
IC50 (human CYP2A6; [2]): 200 nM
Number of nicotine infusions, Compound (15 mg/kg) ([1]; FR1): 16.8 ± 2.3^d
% Change (decrease in nicotine self-administration) ([1]; 15 mg/kg i.p.): 27.6%
Number of nicotine infusions, Compound (25 mg/kg) ([1]; FR1): 8.3 ± 2.1^d
% Change (decrease in nicotine self-administration) ([1]; 25 mg/kg i.p.): 64.2%
inhibition at 100 µM (CYP2B1): 46.6%

Continued, in another order:

inhibition at 100 µM (CYP2B1): 42.7%
Compound: NCc1ccc(-c2cccnc2)s1 [Compound 4]
Number of nicotine infusions, Compound (15 mg/kg) ([1]; FR1): 11.8 ± 3.2
% Change (decrease in nicotine self-administration) ([1]; 15 mg/kg i.p.): 23.4%

IC50 (human CYP2A6; [2]): > 200000 nM
Ki (human CYP2A6): > 200000 nM
inhibition at 100 µM (CYP2B1): 43.3%
Compound: c1cncc(Cn2ccnc2)c1 [Compound 7, N-(3-Pyridylmethyl)imidazole]
Number of nicotine infusions, Compound (15 mg/kg) ([1]; FR1): 7.5 ± 1.9^d
% Change (decrease in nicotine self-administration) ([1]; 15 mg/kg i.p.): 28.6%

inhibition of human CYP 2E1 (in words) (CYP2E1): some inhibition
inhibition at 10 µM (CYP2E1): 89%
inhibition at 10 µM (CYP2C9): 44%
Food Effects (food intake in rats; Dose 0.5 mg/kg): 80 ± 1.8
Food Effects (food intake in rats; Dose 1.58 mg/kg): 79 ± 2.5
Food Effects (food intake in rats; Dose 5.0 mg/kg): 77 ± 3.2
IC50 (human CYP2A6; [2]): 170000 nM
inhibition at 10 µM (CYP3A4): 27%
inhibition at 10 µM (CYP2C19): 24%
IC50 (hCYP2B6): 11000 nM
inhibition at 10 µM (CYP2D6): 34%
inhibition at 100 µM (CYP2B1): 56.9%
Compound: c1cn(CC2CCCCC2)cn1 [Compound 10, N-(Cyclohexylmethyl)imidazole]
ED50 [1]: 4 mg/kg
effect on nicotine intake, ANOVA of dose response ([1]; i.p.): significant effect
inhibition of human CYP 2B6 (in words) (hCYP2B6): inhibited human CYP 2B6 to a certain extent

inhibition at 100 µM (CYP2B1): 53.5%
Compound: c1cc(CCn2ccnc2)ccn1 [Compound 9, N-(4-Pyridylethyl)imidazole]
nicotine self-administration under a FR schedule (in words) ([1]; 15 mg/kg, i.p., 30-min prior): decreased nicotine self-administration

IC50 (human CYP2A6; [2]): 800 nM
IC50 (hCYP2B6): 67400 nM
inhibition at 100 µM (CYP2B1): 55.3%
Compound: NCc1cc(-c2cccnc2)no1 [Compound 2]
Number of nicotine infusions, Compound (15 mg/kg) ([1]; FR1): 8.4 ± 1.7
% Change (decrease in nicotine self-administration) ([1]; 15 mg/kg i.p.): 19.2%
Number of nicotine infusions, Compound (25 mg/kg) ([1]; FR1): 5.6 ± 1.6^d
% Change (decrease in nicotine self-administration) ([1]; 25 mg/kg i.p.): 60. %

inhibition at 100 µM (CYP2B1): 47.9%
Compound: Cc1ccsc1-c1cccnc1 [Compound 5]
Number of nicotine infusions, Compound (15 mg/kg) ([1]; FR1): 8.8 ± 1.6
Number of nicotine infusions, Compound (25 mg/kg) ([1]; FR1): 1.6 ± 0.7^d

IC50 (human CYP2A6; [2]): 600 nM
IC50 (hCYP2B6): 66400 nM
inhibition at 100 µM (CYP2B1): 53.8%
Compound: NCc1cc(-c2cccnc2)n[nH]1 [Compound 1]
Number of nicotine infusions, Compound (15 mg/kg) ([1]; FR1): 11.6 ± 2.9
% Change (decrease in nicotine self-administration) ([1]; 15 mg/kg i.p.): 14.7%

inhibition of human CYP 2E1 (in words) (CYP2E1): some inhibition
inhibition at 10 µM (CYP2E1): 87%
inhibition at 10 µM (CYP2C9): 32%
IC50 (human CYP2A6; [2]): 160 nM
Ki (human CYP2A6): 80 nM
inhibition at 10 µM (CYP2C19): 43%
IC50 (hCYP2B6): 12000 nM
inhibition at 10 µM (CYP2D6): 48%
inhibition at 100 µM (CYP2B1): 35.5%
Compound: Clc1ccc(Cn2ccnc2)cc1 [Compound 3, N-(4-Chlorobenzyl)imidazole]
Number of nicotine infusions, Compound (15 mg/kg) ([1]; FR1): 13.0 ± 2.7
% Change (decrease in nicotine self-administration) ([1]; 15 mg/kg i.p.): 23.6%
inhibition of human CYP 2B6 (in words) (hCYP2B6): inhibited human CYP 2B6 to a certain extent
